{
  "source": "patent US11149046B2",
  "about": "“Antibacterial sideromycins” (Hsiri Therapeutics, Inc., priority 2014, dated 2021)",
  "key": {"[1]": {"tested_on": "P. aeruginosa KW799/wt", "test": "MIC determination", "format": "cell-based, Pseudomonas aeruginosa", "source_text": "(§1) Table 3 that was included in the first Example 4 section provides antibacterial data for the first synthetic sideromycins we prepared and studied. The second Example 4 section elaborated and expanded on that data with inclusion of representative antibacterial data in the text and associated pictures of Petri dish assays. MIC (minimum inhibition concentration) is given in μM and AD (agar diffusion zones of inhibition are given in mm from Kirby-Bauer Petri dish growth inhibition studies)."}, "[2]": {"tested_on": "Pa6", "test": "MIC determination", "format": "cell-based, Pseudomonas aeruginosa", "details": "read-out: MIC", "source_text": "(§2) MIC (minimum inhibition concentration) is given in μM and AD (agar diffusion zones of inhibition are given in mm from Kirby-Bauer Petri dish growth inhibition studies)."}, "[3]": {"tested_on": "Pa-Da-1304 CF patient isolate", "test": "MIC determination", "format": "cell-based, Pseudomonas aeruginosa", "source_text": "as §2\nWe obtained a clinical isolate of Pseudomonas from a cystic fibrosis patient."}, "[4]": {"tested_on": "Pseudomonas aeruginosa 01 (Pa01)", "test": "MIC determination", "format": "cell-based", "source_text": "as §1"}, "[5]": {"test": "Stability assay in media", "format": "physicochemical", "source_text": "The initial antibacterial assay shown in Table 6 indicated activity against select strains of Pseudomonas and/or Acinetobacter. However, the reduction of activity at higher concentrations but excellent activity at lower, drug like concentrations, raised the concern that either the conjugates were unstable or some of the siderophore component remained in the final conjugate and at higher concentrations, the siderophore growth promotion would compete for the sideromycin growth inhibition. The possible instability was considered to be due to the presence of the short succinate linker that upon bacterial uptake and iron removal would promote intramolecular release of the antibiotic component and regeneration of the siderophore with subsequent growth promotion effects. […] Meanwhile, the assays were repeated with intentional addition (titration with) of the siderophore component itself to the sideromycins. […] Therefore, each of these mixed ligand sideromycins has been resynthesized and rigorously purified. […] MIC antibacterial assays are being repeated with the newly prepared samples. […] Thus, the mixed ligand system has the potential to be a very potent and selective anti-Acinetobacter sideromycin."}, "[6]": {"tested_on": "strains of Pseudomonas and Acinetobacter", "test": "Antibacterial activity, general statements", "format": "cell-based", "details": "general statements of the text", "procedure": "Antibiotic activity was determined using agar diffusion assays against representative Gram-negative bacteria, including Pseudomonas aeruginosa (Pa6), and several multidrug resistant forms of Acinetobacter baumannii. Representative results are shown in Table 1 and a corresponding picture of an actual petri dish showing the agar diffusion results (FIG. 4). […]."}, "[7]": {"test": "Cytotoxicity assay", "details": "human, PC3 cells"}, "[8]": {"test": "Cytotoxicity assay", "details": "human, MCF7 cells"}, "[9]": {"test": "Cytotoxicity assay", "details": "human, HeLa cells"}, "[10]": {"tested_on": "Pa4", "test": "MIC determination", "format": "cell-based, Pseudomonas aeruginosa", "source_text": "as §1"}, "[11]": {"tested_on": "A. baumannii ATCC 17961", "test": "MIC determination", "format": "cell-based, Acinetobacter baumannii", "details": "read-out: MIC", "source_text": "as §1"}, "[12]": {"tested_on": "PC3"}, "[13]": {"tested_on": "MCF7"}, "[14]": {"tested_on": "Hela"}, "[15]": {"tested_on": "P. aeruginosa KW799/61 (permeability mutant)", "test": "microbe, parasite or virus in culture", "format": "cell-based, Pseudomonas aeruginosa", "details": "Table 5", "source_text": "as §2"}, "[16]": {"tested_on": "Pseudomonas aeruginosa KW799/wt", "test": "Agar diffusion (Kirby-Bauer) assay", "format": "cell-based", "details": "wild type Pseudomonas; FIG. 8, 9, 12", "source_text": "as §1"}, "[17]": {"tested_on": "Pseudomonas aeruginosa KW799/61", "format": "cell-based", "details": "outer membrane permeable mutant; FIG. 9 center panel", "source_text": "as §2"}, "[18]": {"tested_on": "Acinetobacter baumannii ATCC 17961", "test": "Agar diffusion (Kirby-Bauer) assay, with and without hydrogel", "format": "cell-based", "details": "Acinetobacter; FIG. 8, 9, 10", "source_text": "as §1\nWe investigated whether the sideromycin absorbed in the gel be able to diffuse out of the gel and into the agar to effect antibacterial growth. As a control, the sideromycin alone, without gel, was added in a separate 9 mm well, as usual.\nThe second question was whether the sideromycin continue to be released and be able to effect bacterial growth inhibition over extended periods. Thus, additional identical agar plates were prepared and stored at 4° C. for 24, 48 and 72 hours to allow diffusion of the sideromycin (control and gel forms) into the agar before allowing the bacteria to grow in an incubator. Then after each time period, the Petri dishes were incubated at 37° C. for 20 hours to promote bacteria growth in the agar. […] The study has been extended to as long as 168 hours (one week) with retention of antibiotic effectiveness."}, "[19]": {"tested_on": "Acinetobacter", "test": "Murine Survival Experiment with Acinetobacter", "format": "in vivo", "details": "50 mg/kg IV at +30 min and +4 hr", "procedure": "In vivo data for murine survival with Acinetobacter is shown in Table 9 below and graphically in FIG. 14. In the experiments, 10^8 Acinetobacter was administered IP at time 0 on Day 1, and antibiotic was administered twice IV at +30 min and +4 hr"}, "[20]": {"tested_on": "A. baumannii BAA1710", "test": "Antibacterial activity of MG-1-189 and sulbactam", "details": "single agent"}, "[21]": {"tested_on": "A. baumannii BAA1793", "test": "Antibacterial activity of MG-1-189 and sulbactam", "details": "single agent"}, "[22]": {"tested_on": "A. baumannii BAA1797", "test": "Antibacterial activity of MG-1-189 and sulbactam", "details": "single agent"}, "[23]": {"tested_on": "A. baumannii BAA1800", "test": "Antibacterial activity of MG-1-189 and sulbactam", "details": "single agent"}},
  "note": "“Also recorded” adds a separate entry of the source. Read-outs that look alike come from different tables or passages of the source.",
  "data": [
    {"compound": "CC(=O)Oc1cccc(C(=O)NCCCCN(CCCNC(=O)c2cccc(OC(C)=O)c2OC(C)=O)C(=O)CCC(=O)NCCCCCN(OC(C)=O)C(=O)CCC(=O)N[C@@H](C(=O)N[C@@H]2C(=O)N3C2SC(C)(C)[C@@H]3C(=O)O)c2ccccc2)c1OC(C)=O", "note": "(some centres unmarked) [MG-1-121]", "values": [
      {"measurement": "MIC", "setting": "[1]", "result": "0.14 to 0.2", "unit": "µM"},
      {"measurement": "MIC", "setting": "[1]; Pseudomonas aeruginosa, KW799/WT, Table 6, read-out: MIC", "result": "0.14 to 0.2", "unit": "µM"},
      {"measurement": "MIC", "setting": "[1]; listed as MG-1-239, read-out: MIC", "result": 0.05, "unit": "µM"},
      {"measurement": "MIC", "setting": "[2]; Pseudomonas aeruginosa, Table 6", "result": "> 50", "unit": "µM"},
      {"measurement": "MIC", "setting": "[3]; Pseudomonas aeruginosa, clinical isolate from a cystic fibrosis patient", "result": "> 50", "unit": "µM"},
      {"measurement": "MIC", "setting": "[4]", "result": "0.39 to 0.55", "unit": "µM"},
      {"measurement": "MIC", "setting": "[4]; Pseudomonas aeruginosa, Table 6, read-out: MIC", "result": "0.39 to 0.55", "unit": "µM"},
      {"measurement": "MIC", "setting": "[4]; Pseudomonas aeruginosa, read-out: MIC", "result": 0.2, "unit": "µM"},
      {"measurement": "stability in media (in words)", "setting": "[5]; incubated in media under conditions that mimic the antibacterial assays, LC/MS", "result": "expected loss of acetyl groups"},
      {"measurement": "antibacterial activity (in words)", "setting": "[6]", "result": "broad spectrum activity"},
      {"measurement": "IC50", "setting": "[7]", "result": "> 20", "unit": "µM"},
      {"measurement": "IC50", "setting": "[8]", "result": "> 20", "unit": "µM"},
      {"measurement": "IC50", "setting": "[9]", "result": "> 20", "unit": "µM"}
    ]},
    {"compound": "O=C(CCC(=O)N(CCCCNC(=O)c1cccc(O)c1O)CCCNC(=O)c1cccc(O)c1O)NCCCCCN(O)C(=O)CCCC(=O)NC(C(=O)NC1C(=O)N2C(C(=O)O)=C(Cl)CCC12)c1ccccc1", "note": "(centres unmarked) [MG-1-227]", "values": [
      {"measurement": "MIC", "setting": "[1]; read-out: MIC", "result": 0.2, "unit": "µM"},
      {"measurement": "MIC", "setting": "[10]", "result": "> 50", "unit": "µM"},
      {"measurement": "MIC", "setting": "[2]; beta-lactamase producer strain", "result": "> 50", "unit": "µM"},
      {"measurement": "MIC", "setting": "[3]; clinical isolate from a cystic fibrosis patient", "result": "> 50", "unit": "µM"},
      {"measurement": "MIC", "setting": "[11]", "result": 0.025, "unit": "µM"},
      {"measurement": "stability in media (in words)", "setting": "[5]", "result": "showed the desired stability"},
      {"measurement": "IC50", "setting": "[12]", "result": 15, "unit": "µM"},
      {"measurement": "IC50", "setting": "[13]", "result": 11, "unit": "µM"},
      {"measurement": "IC50", "setting": "[14]", "result": "> 20", "unit": "µM"}
    ]},
    {"compound": "N[C@@H](C(=O)N[C@@H]1C(=O)N2C(C(=O)O)=C(Cl)CC[C@H]12)c1ccccc1", "note": "[loracarbef, reference compound]", "values": [
      {"measurement": "MIC", "setting": "[1]; Table 5, read-out: MIC", "result": ">200", "unit": "µM"},
      {"measurement": "MIC", "setting": "[1]; Table 7, read-out: MIC", "result": ">200", "unit": "µM"},
      {"measurement": "MIC", "setting": "[10]; Table 5", "result": ">200", "unit": "µM"},
      {"measurement": "MIC", "setting": "[15]", "result": 50, "unit": "µM"},
      {"measurement": "MIC", "setting": "[2]; Table 5", "result": ">200", "unit": "µM"},
      {"measurement": "MIC", "setting": "[3]; Table 5", "result": ">200", "unit": "µM"},
      {"measurement": "susceptibility of the clinical isolate (in words)", "setting": "[3]; preliminary tests", "result": "resistant"},
      {"measurement": "MIC", "setting": "[11]; Table 5, head prints A. baumannii only", "result": ">200", "unit": "µM"},
      {"measurement": "MIC", "setting": "[11]; Table 7", "result": ">200", "unit": "µM"},
      {"measurement": "MIC", "setting": "[4]; Table 5, read-out: MIC", "result": ">200", "unit": "µM"},
      {"measurement": "MIC", "setting": "[4]; Table 7, read-out: MIC", "result": ">200", "unit": "µM"},
      {"measurement": "zones of inhibition (in words)", "setting": "[16]", "result": "inactive"},
      {"measurement": "zones of inhibition (in words)", "setting": "[17]", "result": "very small zone of inhibition"},
      {"measurement": "zones of inhibition (in words)", "setting": "[18]", "result": "inactive; also recorded: no inhibition"},
      {"measurement": "murine survival (surviving mice)", "setting": "[19]; D 1, 10^8 Acinetobacter IP", "result": 6},
      {"measurement": "murine survival (surviving mice)", "setting": "[19]; D 2", "result": 2},
      {"measurement": "murine survival (surviving mice)", "setting": "[19]; D 3", "result": 2},
      {"measurement": "murine survival (surviving mice)", "setting": "[19]; D 4", "result": 2},
      {"measurement": "murine survival (surviving mice)", "setting": "[19]; D 5", "result": 2},
      {"measurement": "murine survival (surviving mice)", "setting": "[19]; D 6", "result": 2},
      {"measurement": "murine survival (surviving mice)", "setting": "[19]; D 7", "result": 2},
      {"measurement": "Antibacterial activity (MIC)", "setting": "[20]", "result": ">25", "unit": "µM"},
      {"measurement": "Antibacterial activity (MIC)", "setting": "[21]", "result": ">25", "unit": "µM"},
      {"measurement": "Antibacterial activity (MIC)", "setting": "[22]", "result": ">25", "unit": "µM"},
      {"measurement": "Antibacterial activity (MIC)", "setting": "[23]", "result": ">25", "unit": "µM"}
    ]}
  ]
}
